Assay results from US5244795A, “Processes for preparing cholesterol lowering compounds” (Merck & Co., Inc., priority 1992, dated 1993).

Columns and labels:
[1] = test system: Candida albicans; test: FISP disc diffusion assay; format: cell-based; parameters: key to zone quality qualifier: F: clear zone, fuzzy edges; S: slightly hazy zone (some growth observed throughout zone); H: hazy zone (considerable growth observed throughout zone); V: very hazy zone (zone of inhibition is barely discernable); R: zone displays a ring of resistant growth; no qualifier: clear zone throughout, sharp edges; settings: 250 μg/ml in CH2Cl2
Description: The FISP assay employs disc diffusion susceptibility testing methods to generate a spectrum of activity against a panel of representative yeasts, filamentous fungi and bacteria.
The yeasts employed in the assay are Saccharomyces cerevisiae, Candida albicans, Candida tropicalis, Candida rugosa, Brettanomyces bruxellensis, Torulospora hansenii, Candida guilliermondi, Candida pseudotropicalis, Torulopsis glabrata, Cryptococcus albidus, Cryptococcus laurentii and Kluyveromyces fragilis.
For carrying out the assay, seeded assay plates are prepared in the following manner according to the type of assay strain.
Inocula for yeasts and bacterial strains are prepared from overnight broth cultures then diluted into potato dextrose agar to a final concentration of either 40 percent or 70 percent transmission at 660 nm.
For three strains of Candida albicans and one strain of Saccharomyces cerevisiae, sterile saline is employed in place of potato dextrose broth.
Assay plates for the yeasts and filamentous fungi are prepared by diluting the inoculum into appropriate molten agar medium, cooled to 45° C. to obtain a final concentration of 4 percent.
The seeded agar media thus prepared are dispensed into petri dishes for assays (11 ml per dish).
The samples to be tested for production of antifungal agent are applied to 6.2 mm filter paper discs (25 μl/disc) and air dried at 24° C. When the sample to be tested is crude broth, it may be centrifuged prior to application. The discs bearing the material to be tested are then applied employing sterile conditions to the seeded assay plates. The assay plates are then incubated at either 28° C. or 37° C. for 24 hours. In one of the assays for Bacillus subtilis, the sample is applied to a disc previously impregnated with 4M potassium chloride at 25 μl/disc and then air dried.
Following incubation, the inhibition zones are measured and recorded. The measurements are made from the extreme edge where growth differs from the background zone. The zones are noted as to appearance as fuzzy edge and clear center, hazy throughout, slightly hazy, very hazy or ringed.
FISP data is reported as the diameter (in mm.) of the zone of inhibition of growth in agar diffusion assays. The zone is determined by measuring growth that differs from the background lawn. A qualifier is also added to describe the zone quality as listed below: no qualifier: clear zone throughout, sharp edges

[2] = Light stability; format: physicochemical

With CC(/C=C/C=C(\C)C(O)C(C)C(=O)O[C@H]1C[C@H](C)C=C2C=C[C@@]3(C)O[C@@H](O)CC(=O)[C@]3(C)[C@H]21)=C\C=C\C(=O)O (stereo partly shown) [Compound A] the zone quality qualifier [1] was “S”, the zone quality qualifier ([1]; YNB) was “V” and the zone quality qualifier ([1]; YNB/GLU) was “H”. The zone quality qualifier ([1]; YNB/NAG) was “H”, the zone of inhibition at 250 µg/mL ([1]; Candida albicans, read-out: diameter of the zone of inhibition of growth) was 0 mm and the stability ([2]; isolated and worked with in the absence of light) was “stable when isolated and worked with in the absence of light”. For the same compound, the light sensitivity ([2]; light) was “light sensitive”.
